Source: PMC3429353 (Bioorganic & medicinal chemistry, 2012)
≈ marks a conversion by molar mass, not a printed value.

Assays:
[1] = system: M. tuberculosis, M. smegmatis, C. albicans, E. coli, and A. baumanii; test: Antimicrobial activity against a panel of microorganisms; assay type: cell-based
[2] = system: HT-29, MCF-7, NCI-H460, SF268, and IMR90 cells; test: Cytotoxicity against the panel of cell lines; assay type: cell-based, Human
Vero cells = test: Vero cell cytotoxicity
IMR90 cells = test: Cytotoxicity against IMR90 cells; assay type: cell-based, Human
[3] = system: Mycobacterium tuberculosis
Candida albicans = test: Antimicrobial activity; assay type: cell-based
Escherichia coli = test: Antimicrobial activity; assay type: cell-based
Mycobacterium smegmatis = test: Antimicrobial activity; assay type: cell-based
Acinetobacter baumannii = test: Antimicrobial activity; assay type: cell-based
Staphylococcus aureus = test: Antimicrobial activity; assay type: cell-based

## C=C[C@]1(C)CC2C(=O)c3c(NC=O)cccc3C(C)(C)[C@H]2C[C@H]1O (relative stereo) [13-hydroxy dechlorofontonamide (3), 13-hydroxy dechlorofontonamide]
[1]
  antimicrobial activity (in words): no antimicrobial activity
[2]; all cell lines tested (HT-29, MCF-7, NCI-H460, SF268, IMR90)
  cytotoxicity (in words): inactive

## [C-]#[N+]C1=C2c3c[nH]c4cccc(c34)C(C)(C)[C@H]2CC[C@]1(C)C=C [Deschloro hapalindole I (2), deschloro hapalindole I]
[1]
  antimicrobial activity (in words): no antimicrobial activity

## [C-]#[N+][C@@H]1[C@H]2c3c[nH]c4cccc(c34)C(C)(C)[C@@H]2CC[C@]1(C)C=C [Hapalindole H]
[2]; Homo sapiens, read-out: IC50 values (range over cell lines)
  IC50: 8.5 to 31.9 µM

## [C-]#[N+]C1=C2c3c[nH]c4cccc(c34)C(C)(C)[C@H]2C[C@@H](Cl)[C@]1(C)C=C [Hapalindole I]
Vero cells
  cytotoxicity against Vero cells (in words): no detectable cytotoxicity

## [C-]#[N+][C@H]1C(=C)[C@@H](C=C)C[C@@H]2[C@@H]1c1c[nH]c3cccc(c13)C2(C)C [Hapalindole X (1), hapalindole X]
IMR90 cells
  cytotoxicity (in words): relatively low cytotoxicity
[2]; all four cancer cells (HT-29, MCF-7, NCI-H460, SF268)
  cytotoxicity (in words): moderate cytotoxicity

## [C-]#[N+][C@@H]1[C@H]2C(=O)c3c(NC=O)cccc3C(C)(C)[C@@H]2CC[C@]1(C)C=C [Hapalonamide H]
[3]
  MIC M. tuberculosis: 1.2 µM (≈ 0.404 µg/mL)
Candida albicans
  MIC C. albicans: < 0.6 µM
Escherichia coli
  MIC E. coli: > 100 µM
Mycobacterium smegmatis
  MIC M. smegmatis: 34.3 µM (≈ 11.5 µg/mL)
Acinetobacter baumannii
  MIC A. baumanii: > 100 µM
Staphylococcus aureus
  MIC S. aureus: > 100 µM
Vero cells; read-out: IC50 Vero, Vero cell toxicity
  IC50: 13.6 µM

## Gentamycin [reference compound]
Escherichia coli
  MIC E. coli: 2.3 µM
